Data from PubChem BioAssay AID1963871 (Molecular Pharmacology Branch, DTP, NCI, 2024).
pIC50: −log10 of the molar value.

System: KRAS-mutant PDC multicell tumor spheroid viability
Assay: Anticancer human tumor 521955-158-R2-J5-PDC patient-derived pancreatic carcinoma cell line growth inhibition [KRAS2]
Details: for pIC50: curve of first compound; for viability, T/C: stronger effect = lower value
Summary of the method: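 KRAS-mutant tumor cells were grown as spheroids with HUVEC endothelial cells and human MSCs as stroma. Targeted agents were tested alone and with KRAS pathway inhibitors. Doses started at or near clinical Cmax, or 10 microM, descending half-log.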

[1] = second compound 0.0316 µM, first compound 0.0316 µM
[2] = second compound 0.0316 µM, first compound 0.1 µM
[3] = second compound 0.0316 µM, first compound 0.316 µM
[4] = second compound 0.0316 µM, first compound 1 µM
[5] = second compound 0.0316 µM, first compound 3.16 µM
[6] = second compound 0.0316 µM, first compound 10 µM
[7] = second compound 0.1 µM, first compound 0.0316 µM
[8] = second compound 0.1 µM, first compound 0.1 µM
[9] = second compound 0.1 µM, first compound 0.316 µM
[10] = second compound 0.1 µM, first compound 1 µM
[11] = second compound 0.1 µM, first compound 3.16 µM
[12] = second compound 0.1 µM, first compound 10 µM
[13] = second compound 0.316 µM, first compound 0.0316 µM
[14] = second compound 0.316 µM, first compound 0.1 µM
[15] = second compound 0.316 µM, first compound 0.316 µM
[16] = second compound 0.316 µM, first compound 1 µM
[17] = second compound 0.316 µM, first compound 3.16 µM
[18] = second compound 0.316 µM, first compound 10 µM
[19] = second compound 1 µM, first compound 0.0316 µM
[20] = second compound 1 µM, first compound 0.1 µM
[21] = second compound 1 µM, first compound 0.316 µM
[22] = second compound 1 µM, first compound 1 µM
[23] = second compound 1 µM, first compound 3.16 µM
[24] = second compound 1 µM, first compound 10 µM
[25] = second compound 3.16 µM, first compound 0.0316 µM
[26] = second compound 3.16 µM, first compound 0.1 µM
[27] = second compound 3.16 µM, first compound 0.316 µM
[28] = second compound 3.16 µM, first compound 1 µM
[29] = second compound 3.16 µM, first compound 3.16 µM
[30] = second compound 3.16 µM, first compound 10 µM
[31] = second compound 0.1 µM, first compound 0.000316 µM
[32] = second compound 0.1 µM, first compound 0.001 µM
[33] = second compound 0.1 µM, first compound 0.00316 µM
[34] = second compound 0.1 µM, first compound 0.01 µM
[35] = second compound 0.316 µM, first compound 0.000316 µM
[36] = second compound 0.316 µM, first compound 0.001 µM
[37] = second compound 0.316 µM, first compound 0.00316 µM
[38] = second compound 0.316 µM, first compound 0.01 µM
[39] = second compound 1 µM, first compound 0.000316 µM
[40] = second compound 1 µM, first compound 0.001 µM
[41] = second compound 1 µM, first compound 0.00316 µM
[42] = second compound 1 µM, first compound 0.01 µM
[43] = second compound 3.16 µM, first compound 0.000316 µM
[44] = second compound 3.16 µM, first compound 0.00316 µM
[45] = second compound 3.16 µM, first compound 0.01 µM
[46] = second compound 10 µM, first compound 0.000316 µM
[47] = second compound 10 µM, first compound 0.001 µM
[48] = second compound 10 µM, first compound 0.00316 µM
[49] = second compound 10 µM, first compound 0.01 µM
[50] = second compound 10 µM, first compound 0.0316 µM
[51] = second compound 10 µM, first compound 0.1 µM
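Note: viability read after seven days of drug exposure.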

SMILES: CC1(C)CCC(CN2CCN(c3ccc(C(=O)NS(=O)(=O)c4ccc(NCC5CCOCC5)c([N+](=O)[O-])c4)c(Oc4cnc5[nH]ccc5c4)c3)CC2)=C(c2ccc(Cl)cc2)C1 + C=CC(=O)N1CCN(c2nc(OCC3CCCN3C)nc3c2CCN(c2cccc4cccc(C)c24)C3)CC1CC#N
- pIC50 (second compound 0.0316 µM): 5.31
- pIC50 (second compound 0.1 µM): 5.33
- pIC50 (second compound 0.316 µM): 5.70
- pIC50 (second compound 1 µM): 5.77
- pIC50 (second compound 3.16 µM): > 7.50
- viability, T/C [1]: 108%
- viability, T/C [2]: 101%
- viability, T/C [3]: 105%
- viability, T/C [4]: 111%
- viability, T/C [5]: 77.7%
- viability, T/C [6]: 4.79%
- viability, T/C [7]: 97.7%
- viability, T/C [8]: 100%
- viability, T/C [9]: 99.9%
- viability, T/C [10]: 104%
- viability, T/C [11]: 72.9%
- viability, T/C [12]: 4.13%
- viability, T/C [13]: 88.5%
- viability, T/C [14]: 97.4%
- viability, T/C [15]: 100%
- viability, T/C [16]: 103%
- viability, T/C [17]: 19.3%
- viability, T/C [18]: 4.17%
- viability, T/C [19]: 85.6%
- viability, T/C [20]: 89.5%
- viability, T/C [21]: 84.6%
- viability, T/C [22]: 81.7%
- viability, T/C [23]: 11.3%
- viability, T/C [24]: 1.35%
- viability, T/C [25]: 10.6%
- viability, T/C [26]: 8.43%
- viability, T/C [27]: 5.9%
- viability, T/C [28]: 1.39%
- viability, T/C [29]: 0.22%
- viability, T/C [30]: 0.27%

SMILES: CC(=O)Nc1cccc(-n2c(=O)n(C3CC3)c(=O)c3c(Nc4ccc(I)cc4F)n(C)c(=O)c(C)c32)c1 + C=CC(=O)N1CCN(c2nc(=O)n(-c3c(C)ccnc3C(C)C)c3nc(-c4c(O)cccc4F)c(F)cc23)C(C)C1
- pIC50 (second compound 0.1 µM): 9.31
- pIC50 (second compound 0.316 µM): 9.37
- pIC50 (second compound 1 µM): 9.00
- pIC50 (second compound 3.16 µM): 9.35
- pIC50 (second compound 10 µM): > 10.00
- viability, T/C (second compound 0.1 µM, first compound 0.0001 µM): 84.6%
- viability, T/C [31]: 52.6%
- viability, T/C [32]: 41.3%
- viability, T/C [33]: 30.1%
- viability, T/C [34]: 25.8%
- viability, T/C [7]: 15.7%
- viability, T/C (second compound 0.316 µM, first compound 0.0001 µM): 89.7%
- viability, T/C [35]: 51.9%
- viability, T/C [36]: 38.2%
- viability, T/C [37]: 31.4%
- viability, T/C [38]: 28.9%
- viability, T/C [13]: 19.6%
- viability, T/C (second compound 1 µM, first compound 0.0001 µM): 87.9%
- viability, T/C [39]: 61%
- viability, T/C [40]: 54.7%
- viability, T/C [41]: 36.6%
- viability, T/C [42]: 32.9%
- viability, T/C [19]: 24.5%
- viability, T/C (second compound 3.16 µM, first compound 0.0001 µM): 63.5%
- viability, T/C [43]: 51.7%
- viability, T/C [44]: 33.5%
- viability, T/C [45]: 29.5%
- viability, T/C [25]: 18.5%
- viability, T/C (second compound 10 µM, first compound 0.0001 µM): 50.6%
- viability, T/C [46]: 37.1%
- viability, T/C [47]: 28.8%
- viability, T/C [48]: 32.4%
- viability, T/C [49]: 25%
- viability, T/C [50]: 17.8%

SMILES: COc1cc(Nc2ncc3c(n2)-c2ccc(Cl)cc2C(c2c(F)cccc2OC)=NC3)ccc1C(=O)O + C=CC(=O)N1CCN(c2nc(OCC3CCCN3C)nc3c2CCN(c2cccc4cccc(C)c24)C3)CC1CC#N
- pIC50 (second compound 0.0316 µM): > 7.50
- pIC50 (second compound 0.1 µM): > 7.50
- pIC50 (second compound 0.316 µM): > 7.50
- pIC50 (second compound 1 µM): > 7.50
- pIC50 (second compound 3.16 µM): > 7.50
- viability, T/C [1]: 41.5%
- viability, T/C [2]: 33.7%
- viability, T/C [3]: 50.5%
- viability, T/C [4]: 46.2%
- viability, T/C [5]: 38.5%
- viability, T/C [6]: 40.5%
- viability, T/C [7]: 51.1%
- viability, T/C [8]: 28.1%
- viability, T/C [9]: 38.4%
- viability, T/C [10]: 36.3%
- viability, T/C [11]: 38.9%
- viability, T/C [12]: 38.2%
- viability, T/C [13]: 48.5%
- viability, T/C [14]: 27.2%
- viability, T/C [15]: 31.6%
- viability, T/C [16]: 38.8%
- viability, T/C [17]: 33.8%
- viability, T/C [18]: 42.2%
- viability, T/C [19]: 28.8%
- viability, T/C [20]: 28.7%
- viability, T/C [21]: 29.1%
- viability, T/C [22]: 27.7%
- viability, T/C [23]: 26.9%
- viability, T/C [24]: 32%
- viability, T/C [25]: 1.52%
- viability, T/C [26]: 1.29%
- viability, T/C [27]: 0.17%
- viability, T/C [28]: 6.1%
- viability, T/C [29]: 1.44%
- viability, T/C [30]: 0.25%

SMILES: CC1(C)CCC(CN2CCN(c3ccc(C(=O)NS(=O)(=O)c4ccc(NCC5CCOCC5)c([N+](=O)[O-])c4)c(Oc4cnc5[nH]ccc5c4)c3)CC2)=C(c2ccc(Cl)cc2)C1 + CNCc1ccccc1-c1csc(C(C)Nc2nc(C)nc3cc(OC)c(OC)cc23)c1
- pIC50 (second compound 0.1 µM): 5.21
- pIC50 (second compound 0.316 µM): 5.28
- pIC50 (second compound 1 µM): 5.38
- pIC50 (second compound 3.16 µM): > 7.50
- pIC50 (second compound 10 µM): > 7.50
- viability, T/C [7]: 98.8%
- viability, T/C [8]: 98.8%
- viability, T/C [9]: 97.2%
- viability, T/C [10]: 102%
- viability, T/C [11]: 104%
- viability, T/C [12]: 13.4%
- viability, T/C [13]: 90.2%
- viability, T/C [14]: 94.1%
- viability, T/C [15]: 93.4%
- viability, T/C [16]: 89.2%
- viability, T/C [17]: 80.8%
- viability, T/C [18]: 9.94%
- viability, T/C [19]: 91.1%
- viability, T/C [20]: 104%
- viability, T/C [21]: 103%
- viability, T/C [22]: 84.5%
- viability, T/C [23]: 64.2%
- viability, T/C [24]: 5.98%
- viability, T/C [25]: 0.76%
- viability, T/C [26]: 3.72%
- viability, T/C [27]: 43.5%
- viability, T/C [28]: 1.04%
- viability, T/C [29]: 1.54%
- viability, T/C [30]: 0.73%
- viability, T/C [50]: 0.3%
- viability, T/C [51]: 0.27%
- viability, T/C (second compound 10 µM, first compound 0.316 µM): 0.23%
- viability, T/C (second compound 10 µM, first compound 1 µM): 0.22%
- viability, T/C (second compound 10 µM, first compound 3.16 µM): 0.67%
- viability, T/C (second compound 10 µM, first compound 10 µM): 0.32%

SMILES: CC(C)n1nc(-c2ccc3oc(N)nc3c2)c2c(N)ncnc21 + C=CC(=O)N1CCN(c2nc(=O)n(-c3c(C)ccnc3C(C)C)c3nc(-c4c(O)cccc4F)c(F)cc23)C(C)C1
- pIC50 (second compound 0.1 µM): 8.02
- pIC50 (second compound 0.316 µM): 8.12
- pIC50 (second compound 1 µM): 8.14
- pIC50 (second compound 3.16 µM): 8.46
- pIC50 (second compound 10 µM): 9.15
- viability, T/C [31]: 110%
- viability, T/C [32]: 97.8%
- viability, T/C [33]: 63.6%
- viability, T/C [34]: 52.8%
- viability, T/C [7]: 36.7%
- viability, T/C [8]: 27.2%
- viability, T/C [35]: 117%
- viability, T/C [36]: 98.1%
- viability, T/C [37]: 65.5%
- viability, T/C [38]: 44.6%
- viability, T/C [13]: 35.5%
- viability, T/C [14]: 26.9%
- viability, T/C [39]: 117%
- viability, T/C [40]: 102%
- viability, T/C [41]: 64.3%
- viability, T/C [42]: 43.8%
- viability, T/C [19]: 36.6%
- viability, T/C [20]: 24%
- viability, T/C [43]: 91.7%
- viability, T/C (second compound 3.16 µM, first compound 0.001 µM): 79.7%
- viability, T/C [44]: 51.9%
- viability, T/C [45]: 29.7%
- viability, T/C [25]: 26.9%
- viability, T/C [26]: 23.1%
- viability, T/C [46]: 58.1%
- viability, T/C [47]: 46.9%
- viability, T/C [48]: 32.5%
- viability, T/C [49]: 25.7%
- viability, T/C [51]: 18.8%
